Test results from patent US20230304010A1, “COMPOSITIONS AND METHODS FOR TREATING VIRAL INFECTIONS” (priority 2020, published 2023).
Like-named read-outs stand apart in the source and are kept apart here.

Key:
in vitro = details: uninfected Vero E6 cells
[1] = biological target: SARS-CoV-2 Spike: ACE2 interaction (UniProt P0DTC2+Q9BYF1); experiment: biochemical; format: binding
[2] = In vivo lung biodistribution after intratracheal instillation (fluorescence imaging, confocal microscopy); details: administrated intratracheally
Experimental: To monitor DIVC-6 siRNA biodistribution, the siRNA was labelled with Cy-5.5.
In vivo lung biodistribution study was performed in healthy 4 weeks old male C57BL/6J mice. Single dose of peptides or peptide/siRNA complexes were administrated via intratracheal instillation (200 μg) (Table 20). The fluorescence was evaluated by non-invasive in vivo whole-body fluorescence imaging at T0, 1 h, 2 h, 6 h, 24 h, 48 h and 72 hr post injection. Fluorescence images were acquired with the IVIS kinetic system (PerkinElmer) (ex: 640±17 nm; em: 680±10 nm) and semi-quantitative data were obtained from the fluorescence images by using the Living image software (Caliper 2D).
Further analysis of the lung distribution of the different compounds was performed by confocal microscopy. Lungs were collected at 4 hr, 24 hr and 72 hr post administration, fixed in formaldehyde 4% in Glucose 5%. Tissues were stained with Mito tracker red and nucleus with Hoesch.

[3] = Nanoparticle formation of peptides with ADGN-106: mean size and polydispersity (Zetasizer); format: physicochemical; details: 25° C.
Description: We then tested the ability of the different peptides to form nanoparticle organization in the presence of ADGN-106 or ADGN-100 peptide. […] Peptides were complexed with 5 or 10 molar excess of ADGN-106.

[4] = biological target: ACE2:SARS-CoV-2 Spike interaction (UniProt P0DTC2+Q9BYF1); experiment: biochemical; format: binding; details: IC50, SARS-COV2
SARS-CoV-2 [5] = system: SARS-CoV-2
[6] = Lung and liver toxicity studies after intratracheal instillation; details: mouse, in vivo
Experimental: Single dose of peptides or peptide/siRNA complexes were administrated via intratracheal instillation (200 μg) (Table 20). Saline solution was used as negative control. Samples were collected 12, 24, 48 and 72 hr post administration.
The body weight of the mice were recorded before intratracheal instillation (day 0), at day1, day 2 and before being sacrificed (day 3). The lung, liver, heart, kidney and brain were collected at day 3 and organ index were determined.
Bronchoalveolar lavage (BAL) were performed 2 days after instillation. The percentage of the cells, the total protein and level of LDH in the BAL were analyzed.
AST and ALT levels in the plasma were assayed 2 days after instillation.

SARS-CoV-2 [7] = system: SARS-CoV-2; remark: listed apart in the source

Sequence of SARS-CoV-2 Spike: ACE2 interaction (Q9BYF1 18-740, one chain of several): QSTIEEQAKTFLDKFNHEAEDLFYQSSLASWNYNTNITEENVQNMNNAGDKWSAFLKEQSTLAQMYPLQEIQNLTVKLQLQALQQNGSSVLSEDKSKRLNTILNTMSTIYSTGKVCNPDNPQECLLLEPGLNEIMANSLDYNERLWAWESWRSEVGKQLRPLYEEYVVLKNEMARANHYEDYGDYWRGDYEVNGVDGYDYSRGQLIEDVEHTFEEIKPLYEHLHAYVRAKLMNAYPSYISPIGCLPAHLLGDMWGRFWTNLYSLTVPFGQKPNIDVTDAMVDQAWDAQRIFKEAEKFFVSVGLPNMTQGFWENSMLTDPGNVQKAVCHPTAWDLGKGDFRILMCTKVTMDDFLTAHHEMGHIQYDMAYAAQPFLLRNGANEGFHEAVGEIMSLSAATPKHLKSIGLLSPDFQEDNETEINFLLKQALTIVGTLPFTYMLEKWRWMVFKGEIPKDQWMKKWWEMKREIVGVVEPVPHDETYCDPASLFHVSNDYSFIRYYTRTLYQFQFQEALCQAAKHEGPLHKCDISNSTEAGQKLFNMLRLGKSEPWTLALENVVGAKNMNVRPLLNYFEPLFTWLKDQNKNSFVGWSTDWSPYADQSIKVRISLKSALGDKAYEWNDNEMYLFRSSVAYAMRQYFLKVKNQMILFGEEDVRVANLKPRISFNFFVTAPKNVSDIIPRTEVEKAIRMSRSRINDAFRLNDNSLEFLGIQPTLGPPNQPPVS
Sequence of ACE2:SARS-CoV-2 Spike interaction (Q9BYF1 18-740, one chain of several): as above

## CC(=O)N[C@@H](CCC(=O)O)C(=O)N[C@@H](CCC(N)=O)C(=O)N[C@@H](C)C(=O)N[C@@H](CCCCN)C(=O)N[C@H](C(=O)N[C@@H](Cc1ccccc1)C(=O)N[C@@H](CC(C)C)C(=O)N[C@@H](CC(=O)O)C(=O)N[C@@H](CCCCN)C(=O)N[C@@H](Cc1ccccc1)C(=O)N[C@@H](CC(N)=O)C(=O)N[C@@H](Cc1c[nH]cn1)C(=O)N[C@@H](CCC(=O)O)C(=O)N[C@@H](C)C(=O)N[C@@H](CCC(=O)O)C(=O)N[C@@H](CC(=O)O)C(=O)N[C@@H](CC(C)C)C(=O)N[C@@H](Cc1ccccc1)C(=O)NCCCCCC(=O)N[C@@H](CC(C)C)C(=O)N[C@@H](Cc1c[nH]c2ccccc12)C(=O)N[C@@H](CCCNC(=N)N)C(=O)N[C@@H](C)C(=O)N[C@@H](CC(C)C)C(=O)N[C@@H](Cc1c[nH]c2ccccc12)C(=O)N[C@@H](CCCNC(=N)N)C(=O)N[C@@H](CC(C)C)C(=O)N[C@@H](Cc1c[nH]c2ccccc12)C(=O)N[C@@H](CCCNC(=N)N)C(=O)N[C@@H](CO)C(=O)N[C@@H](CC(C)C)C(=O)N[C@@H](Cc1c[nH]c2ccccc12)C(=O)N[C@@H](CCCNC(=N)N)C(=O)N[C@@H](CC(C)C)C(=O)N[C@@H](CC(C)C)C(=O)N[C@@H](Cc1c[nH]c2ccccc12)C(=O)N[C@@H](CCCCN)C(N)=O)[C@@H](C)O [Seq33]
In vitro
  CC50: 510000 ± 31000 nM
  viability at 0.5 µM: 94%
[1]
  folds more potent than SBP-1-ADGN-106/ADGN-106 complex: 4 folds
  folds more potent than SBP-1 coupled to ADGN-106: 8 folds
  folds more potent than SBP-1 peptide/ADGN-106 complex: 35 folds
  folds more potent than free SBP-1: 14 folds
[1]; SARS-CoV-2 Spike:ACE2 IC50
  IC50: 178 ± 14 nM
[2]
  lung targeting and tissue penetration: significantly penetrate lung tissue
[3]; peptide/ADGN-106 complexes
  Mean Size (nm): 45.9 ± 10 nm
[3]; polydispersity index of peptide/ADGN-106 complexes
  PI: 0.24
[4]
  IC50: 18.4 ± 11 nM
SARS-CoV-2 [5]; read-out: SARS-COV2 IC50, original strain, second Table 19, siRNA complexed at molar ratio 1/20
  IC50: 21.7 ± 8 nM
SARS-CoV-2 [5]; treatments added to Vero-E6 immediately prior to virus infection, Table 16
  IC50: 22.9 ± 8 nM
[6]
  lung and liver toxicity associated to treatment: no lung and liver toxicity
  tolerability upon intratracheal administration: well tolerated
SARS-CoV-2 [7]
  Residual Infection (%): 15%
  fold stronger anti-SARS-CoV-2 activity than hydroxychloroquine sulfate: 250 fold
  increase of potency by pre-incubation with SARS CoV-2 prior infection: 2 factor
  inhibition of viral infection: exhibit inhibition of viral infection
